Laboratory results taken from patent US20180265423A1, “Pesticide Dispersion in Concentrated Aqueous Fertilizer Solution” (priority 2014, published 2018).
Where two headings read alike, the source gives them in different places.

Type: physicochemical
Settings: for crystal growth in the fertilizer solutions tested: review of table 2
From the text: Crystal formation in a suspension concentrate is a complex phenomenon. It is believed that if the solubility of the suspended solid chemical is high in the medium, the suspension concentrate is prone to form crystals of the suspended solid chemical in storage. […] The concentrations of the solid pesticides used in this example were low (at a typical ready-to-apply concentration range). If a solid pesticide forms crystals in such a low concentration, it is not suitable for a ready-to-apply pesticide suspension and mostly likely will not be suitable for a more concentrated suspension in fertilizer. […] By “not suitable” is meant that although it may work to some extent, it is not a good candidate for the pesticide SC.
Samples were prepared by adding the components followed by hand-shaking.

[1] = 1 wt % powder pesticide, 98 wt % 10-34-0, 1 wt % Witcolate D-510
[2] = 1 wt % powder pesticide, 98 wt % 40% AMS, 1 wt % Witcolate D-510
[3] = 1 wt % powder pesticide, 98 wt % URAN 32, 1 wt % Witcolate D-510
[4] = 1 wt % powder pesticide, 98 wt % Water, 1 wt % Witcolate D-510
[5] = 1 wt % powder pesticide in 99 wt % 10-34-0, no wetting agent
[6] = 1 wt % powder pesticide in 99 wt % 40% AMS, no wetting agent
[7] = 1 wt % powder pesticide in 99 wt % URAN 32, no wetting agent
[8] = 1 wt % powder pesticide in 99 wt % Water, no wetting agent

SMILES	Comment: powder sank or floated [1]	Comment: suitability [1]	Comment: powder sank or floated [2]	Comment: suitability [2]	Comment: powder sank or floated [3]	Comment: suitability [3]	Comment: powder sank or floated [4]	Comment: suitability [4]	crystal growth in the fertilizer solutions tested	Comment: powder sank or floated [5]	Comment: suitability [5]	Comment: suitability [6]	Comment: powder sank or floated [7]	Comment: suitability [7]	Comment: suitability [8]	solubility in URAN 32	Comment: dissolution [7]	Comment: dissolution [3]	Comment: powder sank or floated [6]	Comment: powder sank or floated [8]
Cc1c(COC(=O)[C@@H]2[C@H](/C=C(\Cl)C(F)(F)F)C2(C)C)cccc1-c1ccccc1 (racemic) [Bifenthrin]	floated	Suitable	sank	Suitable	floated	Suitable	sank	Suitable	did not have crystal growth											
CCNc1nc(Cl)nc(NC(C)C)n1 [Atrazine]	floated	Suitable	floated	Suitable	floated	Suitable	sank	Suitable	did not have crystal growth	floated	Suitable	Suitable	floated	Suitable	Suitable					
CN(C)C(=O)Nc1ccc(Cl)c(Cl)c1 [Diuron]		Suitable	sank	Suitable	sank	Suitable	sank	Suitable	did not have crystal growth	sank and some floated.	Suitable	Suitable	sank	Suitable	Suitable					
O=[N+]([O-])NC1=NCCN1Cc1ccc(Cl)nc1 [Imidaclopid]		Suitable	sank	Suitable		Not suitable	sank	Suitable	did not have crystal growth		Suitable	Suitable		Not suitable	Suitable	high solubility	Dissolved	Dissolved		
CCCCC(C#N)(Cn1cncn1)c1ccc(Cl)cc1 (stereo not drawn) [Myclobutanil]	floated	Suitable	floated	Suitable	floated	Suitable	sank	Suitable	did not have crystal growth	floated	Suitable	Suitable	floated	Suitable	Suitable				sank	sank
